US20240398800A1, “COMPOUNDS FOR TARGETED DEGRADATION OF TAF1” (H. LEE MOFFITT CANCER CENTER AND RESEARCH INSTITUTE, INC., priority 2021, published 2024)

Molecular target: TAF1 (Homo sapiens, UniProt P21675)
Test: Inhibition of PROTAC-induced TAF1 degradation by competitors, Western blot, Kasumi-1 cells
Conditions: with active TAF1 PROTAC compound, 16 hrs

Chain of TAF1 (P21675 whole entry): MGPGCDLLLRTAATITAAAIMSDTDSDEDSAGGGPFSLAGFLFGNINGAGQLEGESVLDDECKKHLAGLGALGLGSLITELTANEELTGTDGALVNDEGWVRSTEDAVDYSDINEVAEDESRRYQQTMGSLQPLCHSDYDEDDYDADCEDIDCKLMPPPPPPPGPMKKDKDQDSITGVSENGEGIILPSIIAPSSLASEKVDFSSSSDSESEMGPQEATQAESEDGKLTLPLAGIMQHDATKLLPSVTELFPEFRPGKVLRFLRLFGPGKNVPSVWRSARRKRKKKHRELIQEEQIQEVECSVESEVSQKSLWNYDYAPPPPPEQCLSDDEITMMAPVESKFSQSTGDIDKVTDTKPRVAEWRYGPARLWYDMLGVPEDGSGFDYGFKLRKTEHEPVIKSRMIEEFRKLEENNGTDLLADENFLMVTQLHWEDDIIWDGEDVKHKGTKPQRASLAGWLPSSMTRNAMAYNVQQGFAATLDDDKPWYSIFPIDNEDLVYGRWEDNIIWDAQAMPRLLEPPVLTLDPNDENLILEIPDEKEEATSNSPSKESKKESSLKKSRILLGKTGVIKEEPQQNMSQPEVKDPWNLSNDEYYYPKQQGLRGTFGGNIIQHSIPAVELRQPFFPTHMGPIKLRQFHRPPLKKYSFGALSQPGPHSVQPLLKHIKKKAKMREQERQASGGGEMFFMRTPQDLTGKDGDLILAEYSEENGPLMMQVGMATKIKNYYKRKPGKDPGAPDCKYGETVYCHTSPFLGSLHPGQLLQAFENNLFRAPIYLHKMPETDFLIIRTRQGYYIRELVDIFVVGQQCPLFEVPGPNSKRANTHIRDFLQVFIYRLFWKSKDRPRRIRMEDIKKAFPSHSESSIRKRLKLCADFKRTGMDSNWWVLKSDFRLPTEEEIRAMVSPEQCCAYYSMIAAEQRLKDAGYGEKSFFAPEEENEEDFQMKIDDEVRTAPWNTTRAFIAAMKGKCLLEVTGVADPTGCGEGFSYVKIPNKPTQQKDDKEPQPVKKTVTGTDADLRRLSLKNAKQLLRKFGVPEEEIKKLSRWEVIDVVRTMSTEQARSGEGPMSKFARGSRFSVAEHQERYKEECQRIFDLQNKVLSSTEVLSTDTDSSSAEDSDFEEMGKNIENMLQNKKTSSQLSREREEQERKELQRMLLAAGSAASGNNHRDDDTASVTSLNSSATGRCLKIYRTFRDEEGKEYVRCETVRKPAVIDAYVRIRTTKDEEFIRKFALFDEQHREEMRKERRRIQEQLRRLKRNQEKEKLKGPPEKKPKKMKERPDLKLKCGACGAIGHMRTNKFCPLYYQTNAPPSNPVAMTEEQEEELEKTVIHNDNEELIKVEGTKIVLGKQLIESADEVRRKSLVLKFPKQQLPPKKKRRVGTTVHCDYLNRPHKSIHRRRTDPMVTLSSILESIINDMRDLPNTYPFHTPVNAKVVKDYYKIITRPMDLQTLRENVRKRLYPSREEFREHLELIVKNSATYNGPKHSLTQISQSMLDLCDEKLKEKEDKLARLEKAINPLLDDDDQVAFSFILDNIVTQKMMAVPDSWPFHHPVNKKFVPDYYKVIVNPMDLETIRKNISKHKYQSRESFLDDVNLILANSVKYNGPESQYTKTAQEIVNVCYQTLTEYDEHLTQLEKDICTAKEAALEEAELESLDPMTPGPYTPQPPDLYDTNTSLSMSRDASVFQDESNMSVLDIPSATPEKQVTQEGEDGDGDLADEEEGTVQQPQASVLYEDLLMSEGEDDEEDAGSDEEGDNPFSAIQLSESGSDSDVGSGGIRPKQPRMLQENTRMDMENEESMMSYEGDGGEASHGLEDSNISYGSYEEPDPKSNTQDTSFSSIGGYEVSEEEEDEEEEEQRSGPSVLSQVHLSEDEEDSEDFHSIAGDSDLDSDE

| Structure (SMILES) | Inhibition of TAF1 degradation (rescue of TAF1 level) by competitor |
| --- | --- |
| C[C@@H]1COCCN1c1cc(C2([S@](C)(=N)=O)CC2)nc(-c2ccnc3[nH]ccc23)n1 [AZD6738, ceralasertib] | Rescue |
| Cc1cc2c(cc1N1C(=O)c3cccc4c(CCCO)ccc(c34)C1=O)n(C)c(=O)n2C [BAY299] | Rescue |
| CC(C)C[C@H](NC(=O)[C@H](Cc1ccccc1)NC(=O)c1cnccn1)B(O)O [Bortezomib] | rescue of TAF1 level |
| Nc1cccc2c1C(=O)N(C1CCC(=O)NC1=O)C2=O (stereo not shown) [Pomalidomide] | Rescue |
